Test results from ChEMBL document CHEMBL4340547, “Synthesis and SAR development of quinoline analogs as novel P2X7 receptor antagonists” (Bioorg Med Chem Lett, 2019).
pIC50: −log10 of the molar value.

Legend:
MDR [1] = assay: Efflux ratio of apparent permeability in MDCK cells expressing MDR; type: ADME, cell-based, Canis lupus familiaris; details: dog, MDCK-MDR1
P2X purinoceptor 7 [2] = target: T1, P2X purinoceptor 7 (Homo sapiens, UniProt Q99572); assay: Antagonist activity at human P2X7 receptor expressed in HEK293 cells assessed as inhibition of BzATP-induced YO PRO dye uptake preincubated for 20 mins followed by YO PRO dye and BzATP addition measured after 30 mins by fluorescence assay; type: cell-based
T1 sequence (Q99572 whole entry): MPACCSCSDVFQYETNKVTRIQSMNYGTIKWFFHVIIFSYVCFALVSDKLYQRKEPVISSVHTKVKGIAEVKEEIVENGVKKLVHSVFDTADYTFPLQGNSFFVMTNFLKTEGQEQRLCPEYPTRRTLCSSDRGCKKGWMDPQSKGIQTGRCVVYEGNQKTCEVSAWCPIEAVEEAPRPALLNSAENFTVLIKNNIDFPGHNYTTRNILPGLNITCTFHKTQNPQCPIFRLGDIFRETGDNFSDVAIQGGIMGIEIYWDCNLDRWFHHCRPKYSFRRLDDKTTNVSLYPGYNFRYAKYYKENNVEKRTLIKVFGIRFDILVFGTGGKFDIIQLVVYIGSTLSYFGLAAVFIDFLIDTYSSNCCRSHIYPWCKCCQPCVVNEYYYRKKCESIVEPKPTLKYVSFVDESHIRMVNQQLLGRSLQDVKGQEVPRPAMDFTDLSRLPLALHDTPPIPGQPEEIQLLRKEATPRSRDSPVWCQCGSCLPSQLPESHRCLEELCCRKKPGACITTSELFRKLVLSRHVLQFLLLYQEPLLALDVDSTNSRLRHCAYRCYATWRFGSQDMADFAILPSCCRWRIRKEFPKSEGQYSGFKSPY

MDR [3] = assay: Apparent permeability across apical to basolateral side in MDCK cells expressing MDR; type: ADME, cell-based, Canis lupus familiaris; details: dog, MDCK-MDR1
P2X purinoceptor 7 [4] = target: T1, P2X purinoceptor 7; assay: Antagonist activity at P2X7R in LPS-stimulated human THP1 cells assessed as inhibition of BzATP-induced IL-1beta release preincubated for 30 mins followed by BzATP stimulation and measured after 30 mins by sandwich ELISA
[5] = Intrinsic clearance in rat liver microsomes; type: ADME, Microsome; details: read-out: CLH
[6] = Intrinsic clearance in mouse liver microsomes; type: ADME, Microsome; details: read-out: CLH
[7] = Intrinsic clearance in human liver microsomes; type: ADME, Microsome; details: read-out: CLH
P2X purinoceptor 7 [8] = target: T2, P2X purinoceptor 7 (Mus musculus, UniProt Q9Z1M0); assay: Antagonist activity at mouse P2X7 receptor assessed as inhibition of BzATP-induced YO PRO dye uptake preincubated for 20 mins followed by YO PRO dye and BzATP addition measured after 30 mins by fluorescence assay
T2 sequence (Q9Z1M0 whole entry): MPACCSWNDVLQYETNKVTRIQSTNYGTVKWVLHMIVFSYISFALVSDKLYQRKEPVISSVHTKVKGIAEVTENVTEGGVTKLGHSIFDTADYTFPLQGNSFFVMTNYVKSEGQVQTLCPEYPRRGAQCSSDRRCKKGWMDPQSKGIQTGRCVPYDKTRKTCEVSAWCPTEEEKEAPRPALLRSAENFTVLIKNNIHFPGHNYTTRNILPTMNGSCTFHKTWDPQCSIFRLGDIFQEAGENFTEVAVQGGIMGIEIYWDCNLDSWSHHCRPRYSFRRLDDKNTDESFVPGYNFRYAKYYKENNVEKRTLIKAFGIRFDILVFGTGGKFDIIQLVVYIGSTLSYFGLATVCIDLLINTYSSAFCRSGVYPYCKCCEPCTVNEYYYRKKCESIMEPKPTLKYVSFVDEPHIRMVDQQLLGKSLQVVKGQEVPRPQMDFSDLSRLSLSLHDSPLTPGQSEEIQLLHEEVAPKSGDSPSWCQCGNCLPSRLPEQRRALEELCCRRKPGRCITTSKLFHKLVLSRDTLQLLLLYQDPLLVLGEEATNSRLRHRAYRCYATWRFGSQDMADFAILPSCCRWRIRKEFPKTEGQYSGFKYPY

P2X purinoceptor 7 [9] = target: T3, P2X purinoceptor 7 (Rattus norvegicus, UniProt Q64663); assay: Antagonist activity at rat P2X7 receptor assessed as inhibition of BzATP-induced YO PRO dye uptake preincubated for 20 mins followed by YO PRO dye and BzATP addition measured after 30 mins by fluorescence assay
T3 sequence (Q64663 whole entry): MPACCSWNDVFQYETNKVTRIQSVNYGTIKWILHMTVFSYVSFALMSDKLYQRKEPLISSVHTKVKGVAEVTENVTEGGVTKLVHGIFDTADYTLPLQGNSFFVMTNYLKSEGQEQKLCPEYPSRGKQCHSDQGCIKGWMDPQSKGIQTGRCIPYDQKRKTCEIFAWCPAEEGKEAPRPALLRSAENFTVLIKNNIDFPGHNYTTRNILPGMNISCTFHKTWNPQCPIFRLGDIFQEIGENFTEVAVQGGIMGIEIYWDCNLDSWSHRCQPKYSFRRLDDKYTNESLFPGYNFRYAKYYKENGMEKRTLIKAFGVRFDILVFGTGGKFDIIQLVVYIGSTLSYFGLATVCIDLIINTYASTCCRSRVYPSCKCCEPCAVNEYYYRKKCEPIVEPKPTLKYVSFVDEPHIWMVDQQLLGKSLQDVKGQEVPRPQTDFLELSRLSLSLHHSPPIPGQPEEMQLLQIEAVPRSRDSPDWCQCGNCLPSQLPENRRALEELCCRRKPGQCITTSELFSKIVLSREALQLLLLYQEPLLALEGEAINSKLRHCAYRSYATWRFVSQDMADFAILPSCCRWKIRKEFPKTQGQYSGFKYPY

[10] = Dose normalized Cmax in mouse at 0.5 mg/kg, po; type: ADME, organism-based; details: in vivo
[11] = AUC in mouse plasma at 5 mg/kg, po; type: ADME, organism-based
[12] = Dose normalized Cmax in mouse at 0.2 mg/kg, iv; type: ADME, organism-based; details: in vivo
[13] = Unbound brain to plasma concentration ratio in mouse at 5 mg/kg, po; type: ADME, organism-based; details: read-out: K(p,uu,brain)
[14] = Dose normalized AUC in mouse at 0.5 mg/kg, po; type: ADME, organism-based; details: in vivo
[15] = Terminal half life in mouse at 0.2 mg/kg, iv or 0.5 mg/kg, po; type: ADME, organism-based; details: in vivo, read-out: beta t1/2 (converted)
[16] = target: Voltage-gated inwardly rectifying potassium channel KCNH2 (Homo sapiens, UniProt Q12809); assay: Activity at human ERG
[17] = Protein binding in mouse brain assessed as unbound fraction at 5 mg/kg, po; type: ADME, organism-based
[18] = Protein binding in mouse plasma; type: ADME, cell-free; details: read-out: PPB
[19] = Dose normalized AUC in mouse at 0.2 mg/kg, iv; type: ADME, organism-based; details: in vivo
[20] = Protein binding in rat plasma assessed as unbound fraction; type: ADME, cell-free
[21] = AUC in mouse brain at 5 mg/kg, po; type: ADME, organism-based
[22] = Protein binding in human plasma assessed as unbound fraction; type: ADME, cell-free
[23] = Clearance in mouse at 0.2 mg/kg, iv or 0.5 mg/kg, po; type: ADME, organism-based; details: in vivo
[24] = Protein binding in human plasma; type: ADME, cell-free; details: read-out: PPB
[25] = Protein binding in rat plasma; type: ADME, cell-free; details: read-out: PPB
[26] = Volume of distribution in mouse at 0.2 mg/kg, iv or 0.5 mg/kg, po; type: ADME, organism-based; details: in vivo
[27] = Oral bioavailability in mouse at 0.5 mg/kg; type: ADME, organism-based; details: in vivo
[28] = Protein binding in mouse plasma assessed as unbound fraction; type: ADME, cell-free
[29] = Protein binding in mouse plasma assessed as unbound fraction at 5 mg/kg, po; type: ADME, organism-based

Sequence of Voltage-gated inwardly rectifying potassium channel KCNH2 (Q12809 whole entry): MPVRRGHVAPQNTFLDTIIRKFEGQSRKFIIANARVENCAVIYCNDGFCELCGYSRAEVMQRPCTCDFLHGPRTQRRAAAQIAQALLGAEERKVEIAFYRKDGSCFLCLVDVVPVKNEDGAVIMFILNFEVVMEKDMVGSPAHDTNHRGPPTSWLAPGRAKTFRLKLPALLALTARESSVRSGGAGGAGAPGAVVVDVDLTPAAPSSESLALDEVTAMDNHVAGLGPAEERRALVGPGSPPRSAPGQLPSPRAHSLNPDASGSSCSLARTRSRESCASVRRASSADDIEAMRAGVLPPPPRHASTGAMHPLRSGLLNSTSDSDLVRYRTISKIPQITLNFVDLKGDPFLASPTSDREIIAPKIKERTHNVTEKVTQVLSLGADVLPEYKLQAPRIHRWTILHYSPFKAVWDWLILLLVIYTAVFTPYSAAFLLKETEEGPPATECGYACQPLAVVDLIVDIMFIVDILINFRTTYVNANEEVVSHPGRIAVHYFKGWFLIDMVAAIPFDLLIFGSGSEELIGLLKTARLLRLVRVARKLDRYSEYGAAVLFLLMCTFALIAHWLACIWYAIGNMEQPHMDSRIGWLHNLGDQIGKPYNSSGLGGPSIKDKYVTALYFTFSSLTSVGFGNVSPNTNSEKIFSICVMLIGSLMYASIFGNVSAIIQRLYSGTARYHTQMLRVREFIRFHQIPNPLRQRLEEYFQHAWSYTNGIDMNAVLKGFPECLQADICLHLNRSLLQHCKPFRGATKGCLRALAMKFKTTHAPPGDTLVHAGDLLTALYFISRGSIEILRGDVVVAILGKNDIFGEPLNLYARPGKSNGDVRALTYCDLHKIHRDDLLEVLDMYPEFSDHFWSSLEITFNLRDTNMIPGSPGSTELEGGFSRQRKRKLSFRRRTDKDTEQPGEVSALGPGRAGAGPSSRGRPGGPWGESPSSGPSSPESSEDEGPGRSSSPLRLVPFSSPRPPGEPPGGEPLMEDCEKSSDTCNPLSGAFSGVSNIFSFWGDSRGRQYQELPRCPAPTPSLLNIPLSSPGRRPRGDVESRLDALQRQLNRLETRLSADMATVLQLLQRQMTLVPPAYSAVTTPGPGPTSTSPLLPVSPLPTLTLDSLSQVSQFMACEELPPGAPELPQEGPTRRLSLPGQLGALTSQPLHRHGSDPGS

Compound | efflux ratio (MDR [1]) | pIC50 (P2X purinoceptor 7 [2]) | Papp A→B (MDR [3]) | pIC50 (P2X purinoceptor 7 [4]) | microsomal CLint [5] | microsomal CLint [6] | microsomal CLint [7] | pIC50 (P2X purinoceptor 7 [8]) | pIC50 (P2X purinoceptor 7 [9]) | other results
O=C(NCC1CCC(F)(F)CC1)c1c(Cl)ccc2nc(N3CCCC3)ccc12 | 1.2 | 7.43 | 31.8 ×10⁻⁶ cm/s | 6.96 to 6.97 | 57 µL/min/mg | 49 µL/min/mg | 87 µL/min/mg | – | – | –
O=C(NCC1CCC(F)(F)CC1)c1c(Cl)ccc2nc(N3CCC(CCO)C3)ccc12 (centres undefined) | 3.8 | 7.33 | 16.5 ×10⁻⁶ cm/s | 7.00 | 46 µL/min/mg | 23 µL/min/mg | 32 µL/min/mg | – | – | –
CN(C)[C@H]1CCN(c2ccc3c(C(=O)NCC4CCC(F)(F)CC4)c(Cl)ccc3n2)C1 | 6.9 | 7.30 | 6 ×10⁻⁶ cm/s | 7.12 | 25 µL/min/mg | 24 µL/min/mg | 80 µL/min/mg | – | – | –
O=C(NC[C@]1(O)CCCC(F)(F)C1)c1c(Cl)ccc2nc(N3CC[C@@H](F)C3)ccc12 | 8.7 | 7.72 | 6.8 ×10⁻⁶ cm/s | 7.44 | 31 µL/min/mg | 48 µL/min/mg | 50 µL/min/mg | 5.32 | 5.37 | –
O=C(NCC1CCC(F)(F)CC1)c1c(Cl)ccc2nc(N3CCC(NCCO)C3)ccc12 (centres undefined) | 114 | 8.00 | 0.18 ×10⁻⁶ cm/s | 7.92 | 10 µL/min/mg | 10 µL/min/mg | 17 µL/min/mg | – | – | –
O=C(NCC1CCC(F)(F)CC1)c1c(Cl)ccc2ncccc12 | – | 6.64 | – | 6.66 | – | – | – | – | – | –
O=C(NCC1CCC(F)(F)CC1)c1c(Cl)ccc2nc(N3CC[C@H](F)C3)ccc12 | 0.85 | 8.09 | 14.1 to 14.4 ×10⁻⁶ cm/s | 6.96 | 21 µL/min/mg | 49 µL/min/mg | 10 µL/min/mg | 5.69 | 5.29 | Cmax/dose [10]: 75.1 ng/mL; AUC [11]: 84.7 ng·h/mL; Cmax/dose [12]: 545 ng/mL; Kp uu [13]: 0.37; AUC/dose [14]: 72.9 ng·h/mL; half-life [15]: 28.8 min; Activity [16]: 30 µM; fraction unbound [17]: 0.03; fraction unbound [18]: 0.03 to 0.1; AUC/dose [19]: 238 ng·h/mL; fraction unbound [20]: 0.041; AUC [21]: 30.9 ng·h/mL; fraction unbound [22]: 0.055; clearance [23]: 69.8 mL/min/kg; fraction unbound [24]: 0.03 to 0.1; fraction unbound [25]: 0.03 to 0.1; Vd [26]: 1.81 L/kg; bioavailability [27]: 31%; fraction unbound [28]: 0.03; fraction unbound [29]: 0.03
COCCNc1ccc2c(C(=O)NCC3CCC(F)(F)CC3)c(Cl)ccc2n1 | – | 7.05 | – | 6.74 | – | – | – | – | – | –
C[C@H]1CCC[C@@](O)(CNC(=O)c2c(Cl)ccc3nc(N4CC[C@@H](F)C4)ccc23)C1 | 4.3 | 8.35 | 8.9 ×10⁻⁶ cm/s | 7.61 | 23 µL/min/mg | 65 µL/min/mg | 21 µL/min/mg | 5.85 | 6.19 | –
